The source of these data is patent US20250152559A1, “METHODS FOR TREATING MYC-AMPLIFIED CANCER” (The Governing Council of the University of Toronto, priority 2023, published 2025).

“And” between values parts separate entries of the source, which are not always exact repeats. Identical values can stand only once.

In data set [1] the test system is EGR1. Description: Western blotting of EGR1 expression. It is filed as cell-based, human. Particulars: BAY-treated tumor cells relative to control. The source says:
A wide range of enriched biological processes were detected upon genetic loss of DHODH, including myogenic differentiation, apoptosis, DNA damage response and signaling via tumor necrosis factor α (TNFα).
Protein lysates were isolated from approximately 500,000-1,000,000 cells. Pellets were rinsed with PBS and then lysed in RIPA buffer containing HALT™ protease inhibitor cocktail (ThermoFisher). Protein concentrations were quantified using the Bradford Assay (BioRad). Protein size was resolved via SDS-PAGE and then transferred to PVDF for immunoblotting. Rabbit polyclonal anti-DHODH (Cell Signaling Technologies; catalogue #80981), rabbit monoclonal anti-EGR1 (Cell Signaling Technologies; catalogue #4145), rabbit polyclonal anti-phospho-ERK1/2 Thr202/Tyr204 (Cell Signaling Technologies; catalogue #9101), rabbit monoclonal anti-phospho-4E-BP1 Thr37/46 (Cell Signaling Technologies; catalogue #2855) were used at a 1:1000 dilution. Mouse monoclonal anti-GAPDH (Abcam; catalogue #ab8245) was used at a 1:5000 dilution. For development, horse-radish peroxidase-conjugated secondary anti-mouse (BioRad; catalogue #1706516) and anti-rabbit antibodies (BioRad; catalogue #1706515) were used with BioRad Clarity ECL reagents. Quantification was performed by analyzing mean pixel density of each band and then normalizing to GAPDH loading control. […]
A general note: Immunoblotting shows a protein as a band on a membrane.

Data set [2] concerns de novo pyrimidine biosynthesis in brain tissue. Description: LC-MS metabolome profiling of brain tissues of treated mice. It is filed as in vivo. Conditions: individual samples, listed as BAY. Here is the method: (§1) In parallel to these experiments, subcutaneous flank xenografts were engrafted into two cohorts of mice, which were treated with the vehicle or R2. […] To investigate the pharmacokinetics of BAY in vivo, its concentration in plasma and brain tissues of healthy mice was directly quantified using an LC-MS approach. BAY was detected in both brains and plasma of mice undergoing treatment, however the plasma concentrations exceeded those of the brain by approximately 10-fold (FIG. 5H-I). To determine whether treatment with BAY affects de novo pyrimidine biosynthesis in vivo, changes in pyrimidine metabolism were measured in the brain in comparison to tumor tissues from the flank (FIG. 5J-K). Although BAY treatment impacted de novo pyrimidine metabolism in vivo in both brain and tumor tissues, with a similar pattern observed in vitro (FIG. 4A), the effect size was stronger in peripheral tumor tissue in comparison to brain tissue. Such findings further reflect the limited capacity for BAY to accumulate within the brain.
For metabolome profiling of tissues, ˜5 mg tissue were homogenized in 225 μL of −20° C. cold, methanol using a Bullet Blender Tissue Homogenizer (NextAdvance, Inc.) Bullet for 3 min. The homogenate was vortexed for 20 s and 750 μL of −20° C. cold methyl tertiary-butyl ether (MTBE) was added, and the mixture was vortexed for 10 s and shaken at 4° C. for 5 min. Next, 188 μL room temperature water was added and vortexed for 20 s to induce phase separation. After centrifugation for 5 min at 14,000×g, the bottom polar phase was collected and dried down. Metabolite extracts were reconstituted in LC-MS grade water/acetonitrile (50:50; v:v), vortexed for 1 min, sonicated for 15 min, and centrifuged at 16,000×g and 4° C. for 15 min to remove insoluble debris.
The LC-MS metabolomics and lipidomics analyses of the 3 NSC and 3 MB cell lines and tissues were performed on a UPLC-MS system consisting of an Orbitrap IQ-X Tribrid coupled to a Horizon Vanquish UPLC system (Thermo Fisher Scientific). The lipidomics analysis was conducted in positive-ion mode with a spray voltage of 3.5 kV while the metabolomics analysis was conducted in negative-ion mode with a spray voltage of −2.5 kV. The following source conditions were identical in both analyses and were set as follows: Sheath gas flow rate, 50 arbitrary units; Aux. gas flow rate, 10 arbitrary units; Sweep gas flow rate, 1 arbitrary unit; Ion transfer tube temp., 300° C.; Vaporizer temp., 350° C. The following acquisition parameters were used for MS1 analysis in both methods: resolution, 120,000, AGC target, 4e5. The maximum IT was set at […] for the lipidomics analysis and 200 ms for the metabolomics analysis. Data-dependent MS/MS parameters for the lipidomics analyses: resolution, 30,000; AGC target, 7.5e4; maximum IT, Dynamic (54 ms); time between Master Scans, 0.6 s; isolation window, 1.0 m/z; NCE/stepped nce, 20, 30, 40; intensity threshold, 5e4; exclude isotopes, on; dynamic exclusion, 3.0 s. Data-dependent MS/MS parameters for the metabolomics analyses: resolution. 15,000; AGC target, 7.5e4; maximum IT, Dynamic (22 ms); time between Master Scans, 0.6 s; isolation window, 1.0 m/z; NCE/stepped nce, 20, 30, 40, 50; intensity threshold, 5e4; exclude isotopes, on; dynamic exclusion, 5.0 s. To increase the total number of MS/MS spectra in the lipidomics analysis, five runs with iterative MS/MS exclusions were performed using the AcquireX function in Xcalibur (Thermo Fisher Scientific). In the metabolomics analysis, three runs with iterative MS/MS exclusions were performed using the AcquireX function. For the lipidomics analysis, chromatographic separation was achieved using a Waters Acquity UPLC CSH C18 (100 mm×2.1 mm i.d.; 1.7 μm) column injecting 2 μL. […] The column was equilibrated for 2 min at 15% B. The flow rate was set to 250 μL/min. The column temperature was maintained at 65° C. […]

The nature of data set [3]: Pharmacokinetic analysis of BAY2402234 in plasma and brain by LC-MS. Type of data set: in vivo. Conditions: healthy mice undergoing treatment. Here is the method:
as §1
Standards and samples were extracted by the addition of organic solvent, containing the internal standard (IS), for protein precipitation. […] Brains were analyzed similarly, with 20 μL of sample transferred to 180 μL of IS solution prior to analysis via LC-MS.

[4] abbreviates: brain tissue of BAY-treated mice.

As to `CCn1c(CO)nn(-c2cc(O[C@@H](C)C(F)(F)F)c(C(=O)Nc3c(F)cccc3Cl)cc2F)c1=O` [BAY2402234], in data set [1], the EGR1 protein expression entry is reported as “upregulated at the protein level”. In data set [2] (setting [4]), the “Glutamine normalized peak intensity (Area)” value is 280983232 and 324326048 and 229454432 and 206007952; the “N-Carbamoyl aspartic acid normalized peak intensity (Area)” value was 1700352 and 1616900 and 1920988 and 2261730; the “Orotic acid normalized peak intensity (Area)” value is 3366687 and 6999989 and 4291824 and 3862066; the “UDP-GluNAc normalized peak intensity (Area)” value is 16715786 and 8363980 and 11501715 and 11534621. For the same compound, in data set [2] (setting [4]), the “UTP normalized peak intensity (Area)” value is 22962 and 19870 and 12207 and 19991; the “Uridine 5′-diphosphate (UDP) normalized peak intensity (Area)” value was 133672 and 97588 and 69682 and 73337; the “Uridine 5′-monophosphate normalized peak intensity (Area)” value is 23218120 and 13372546 and 15616277 and 19018060; the “Uridine normalized peak intensity (Area)” value is 41449420 and 113184456 and 51214976 and 33664876. Moreover, the “dihydroorotic acid normalized peak intensity (Area)” value in data set [2] (setting [4]) is 1975829 and 3553594 and 1415838 and 2677330. In data set [2], the “BAY-2402234 normalized peak intensity (Area)” value was 1338708 and 4796862 and 1717137 and 2579631. Moreover, in data set [3], the “plasma concentration relative to brain concentration” value is “approximately 10 fold”.
